Earlier results in patent publication US20060093676A1, “Ascorbic acid stability” (priority 2002, published 2006).

Conditions: in water

pK of acid-ionizable hydrogen: 4.2
SMILES: O=C1O[C@H]([C@@H](O)CO)C(O)=C1O [L-Ascorbic acid]
